Source: patent publication US6642365B1, “Anti-(retro)viral conjugates of saccharides and acetamidino or guanidino compounds” (Yeda Research and Development Co. Ltd., priority 2001, dated 2003)
Entries after “also recorded” stand apart in the source; their conditions may differ. Where two headings read alike, the source gives them in different places.

Tests used:
HIV Rev-RRE interaction = settings: at 100 μM; cited from earlier work
TAR RNA = test: L-arginine-Amberlite affinity column elution of TAR RNA; type: binding, HIV-1; settings: concentration that elutes 50% of TAR RNA from L-arginine-Amberlite affinity column
Protocol: The model Tat peptide (R52: […]) was prepared by the Weizmann Institute Chemical Services and was purified by reverse phase HPLC (C-18) (Lapidot et al., 1995). […] The RNA was transcriptionally labeled with α-^32P UTP, purified on a 12% polyacrylamide/7M urea gel (19:1 acrylamide:bis-acrylamide) and was eluted from the gel by 0.5M ammonium acetate, 10 mM magnesium acetate, 1 mM EDTA and 0.1% SDS. The sample was subjected to phenol extraction and the RNA was precipitated from 70% ethanol. Purified RNA was dissolved in diethyl pyrocarbonate-treated water (DEPC water), its concentration was determined by UV absorption at 260 nm and the specific radioactivity was determined by scintillation counting on a LS 1701 “Bruker” counter.
The L-arginine-Amberlite resin was prepared as follows: Carboxyl groups of Amberlite IRC-50 resin were covalently modified with ethanolamine using 1-(3-dimethylaminopropyl) 3-ethylcarbodiimide, a water-soluble coupler. The hydroxy ethyleneamide resin obtained was washed and dried, and L-arginine (12-16 μmols per ml of resin) was coupled to the hydroxy groups of the resin via an isourea moiety using a standard cyanogen bromide protocol. The final concentration of arginine residues was 12-16 μmol per ml of resin. The swollen L-arginino-Amberlite resin (200 μl) was packed into a plastic mini-column and equilibrated with buffer containing 40 mM Tris HCl, pH 7.5, 250 mM NaCl, 0.5 mM EDTA and 5 mM MgCl2 (buffer A). Approximately 1 ng of ^32P-UTP labeled TAR RNA in buffer A was loaded on the column. The column was eluted 3 to 5 times with 400 μl portions of buffer A, until no radioactivity was detected in the eluent. […] Each of the test compounds was dissolved in buffer A and passed through the column in 300 μl portions. Radioactivity of the eluates was determined by scintillation counting on a LS 1701 “Bruker” counter. CE50 values, the concentrations of inhibitors eluting 50% of the radioactive material from the column, were determined.

Tat-TAR interaction [1] = test: Gel-shift inhibition of Tat R52 peptide binding to TAR RNA; design: species or system HIV-1; settings: TAR RNA 6 nM; 60 nM Tat R52; read-out: CI50 (the source's name)
Protocol: The model Tat peptide (R52: […]) was prepared by the Weizmann Institute Chemical Services and was purified by reverse phase HPLC (C-18) (Lapidot et al., 1995). A 31-nt TAR RNA fragment (5′-GGCCAGAUCUGAGCCUGGGAGCUCUCUGGCC-3′) containing the sequence 18-44 of the HIV LTR (Aboul-Ela et al., 1995) was transcribed in vitro by T7 RNA polymerase (Promega) from a synthetic single strand DNA template containing the 17 base double-stranded T7 promoter (both DNA oligonucleotides were prepared by the Weizmann Institute Chemical Services). The RNA was transcriptionally labeled with α-^32P UTP, purified on a 12% polyacrylamide/7M urea gel (19:1 acrylamide:bis-acrylamide) and was eluted from the gel by 0.5M ammonium acetate, 10 mM magnesium acetate, 1 mM EDTA and 0.1% SDS. The sample was subjected to phenol extraction and the RNA was precipitated from 70% ethanol. Purified RNA was dissolved in diethyl pyrocarbonate-treated water (DEPC water), its concentration was determined by UV absorption at 260 nm and the specific radioactivity was determined by scintillation counting on a LS 1701 “Bruker” counter.
To study the affinity of the test compounds to TAR, gel-shift and gel-shift inhibition experiments were performed. The binding reaction mixtures (20 μl) contained ^32P-labeled TAR (18-44) RNA oligonucleotide (3-6 nM) and Tat R52 peptide (35-75 nM) in a binding buffer (10 mM Tris-HCl pH 7.5, 70 mM NaCl, 0.2 mM EDTA and 5% glycerol). The reaction mixtures were incubated for 10 minutes on ice and resolved by electrophoresis on a 10% non-denaturing polyacrylamide gel (40:1 acrylamide:bis-acrylamide) at 200V, for 3 h at 4° C. Gels were dried and visualized by autoradiography. Quantitations were obtained by optical densitometry of films. Alternatively, results were visualized by exposing the wet gels to Fuji phosphoimager plates, which were read on a “Storm 820” (Molecular Dynamics) phosphoimager. Different concentrations of TAR RNA (6,12 and 20 nM) were titrated with various concentrations of Tat R52 in the binding reactions.
Binding inhibition by the monosaccharide derivatives was measured by adding several concentrations of each compound to reaction mixtures containing 60 nM Tat 52 and 6 nM ^32P TAR, attaining 100% binding of Tat TAR in the absence of inhibitors (Lapidot et al., 1995).

Tat-TAR interaction [2] = test: as above; design: species or system HIV-1; settings: TAR RNA 2 nM; read-out: CI50 (the source's name)
HIV-1 NL4-3 [3] = test: Anti-HIV assay, MTT, MT-4 cells; type: cell-based
Protocol: The HIV-1 strains NL4-3 and Ba-L and the CD4^+lymphocytic cell lines SUP-T1, MT-4 and MT-2 and P4-CCR5 MAGI cells were obtained from the MRC AIDS reagent program or the NIH, AIDS Research and Reference Reagent Program.
(§1) The cells were infected by incubation with different titers of the HIV-1 strains for 2 hrs at 37° C. in the presence or absence of the AAC of the invention. Then the cells were washed from the virus by centrifugation at 400 g and the supernatants were discarded. The cells were resuspended in culture medium, supplemented with different concentrations of the test compounds. The cells were allowed to proliferate for 5 days, the number of viable cells was quantified by a tetrazolium-based colorimetric method (CellTiter 96® AQueous One solution Cell Proliferation Assay, Promega). Anti-HIV activity in P4-CCR5 MAGI cells was done as follows: cells (1×10^5/ml) were infected with 10 ng/ml of p24 antigen of HIV-1 Ba-L in the presence of varying concentrations of the test compound. 24 hours post infection, cells were washed twice with PBS and resuspended in the medium containing the appropriate drug concentration. Five days after infection the cells were washed with PBS and evaluated for β-galactosidase activity.

[4] = test system: HIV-1 NL4-3 AMD3100-resistant; type: cell-based
HIV-1 NL4-3 [5] = test: Virus-binding assay, p24 antigen bound to MT-4 cells; type: cell-based; settings: 0.5 μg/ml
Protocol: MT4 cells (5×10^5) were incubated with supernatant containing 1×10^5 pg of p24 antigen of wild type HIV-1 in the presence of different concentrations of the test compound. One hour after infection, cells were washed 3 times with PBS and p24 antigen bound to the cells was determined by a commercial ELISA test (Coulter, Spain).

CXCR4 [6] = target: T1, CXCR4 (Homo sapiens, UniProt P61073); test: Inhibition of anti-CXCR4 mAb (12G5) binding, flow cytometry, SUP-T1 cells; design: endogenous in cells
T1 sequence (P61073 whole entry): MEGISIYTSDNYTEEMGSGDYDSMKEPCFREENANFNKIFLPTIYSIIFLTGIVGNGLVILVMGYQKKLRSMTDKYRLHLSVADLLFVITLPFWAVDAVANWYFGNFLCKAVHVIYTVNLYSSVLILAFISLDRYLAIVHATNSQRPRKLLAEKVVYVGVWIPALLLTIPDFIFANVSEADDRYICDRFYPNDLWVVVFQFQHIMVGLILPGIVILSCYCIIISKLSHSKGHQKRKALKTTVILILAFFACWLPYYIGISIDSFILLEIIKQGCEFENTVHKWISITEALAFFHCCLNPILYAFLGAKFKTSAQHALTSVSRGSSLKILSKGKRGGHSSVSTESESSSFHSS
Protocol: (§2) Measurement of chemokine receptors CXCR4, CCR5 and the CD4 receptor on phytohemagglutinin (PHA)-activated PBMC was performed by flow cytometry analysis. Briefly, 0.5×10^6 cells were washed in ice-cold phosphate-buffered saline (PBS) and incubated for 30 minutes at 4÷C. with fluorescent labelled mAb 12G5 and 2D7 and Leu3a (Becton Dickinson, San Jose, Calif.) or with isotype control mAbs in the presence or absence of the test compound. Then, the cells were washed with ice-cold PBS and were fixed in PBS containing 1% formaldehyde. For each sample, 10,000 events were analysed in a FACScalibur™ system (Becton Dickinson). Data were acquired and analysed with CellQuest™ software (Becton Dickinson).

Tat-TAR complex = settings: cited from earlier work
HIV-1 IIIB = test: Anti-HIV assay, syncytium formation and tetrazolium colorimetric assay; type: cell-based; settings: range over IIIb, 2D, AZT resistant, UC781 resistant and clade C HIV-1
Protocol: (§3) T-tropic HIV-1 laboratory strains IIIb, 2D as well as AZT-resistant and UC781-resistant strains were utilized in this study, along with clinical isolate (clade C). HIV-1 clinical isolate, resistant to AZT is a generous gift from Dr. Mark A. Wainberg, McGill AIDS Center, McGill University, Montreal, Canada.
(§4) MT-2 or MT-4 cells were cultured in RPMI 1640 supplemented with 10% fetal calf serum (FCS), 0.2 mM glutamine and penicilline/streptomycin/nistatin mixture. The cells were propagated in 96-well tissue culture plates at the density of 5×10^4 cells per well. Peripheral mononuclear blood cells (PMBC) were separated from whole blood samples by centrifugation in Ficoll gradient for 10 min at 400 g. PMBC were cultured in the same medium in 24-well tissue culture plates at the density of about 10^6 cells per well.

[7] = test system: HIV-1 clinical isolate (clade C); test: as above; type: cell-based
Protocol: as §3, §4

HIV-1 2D = type: cell-based
Protocol: as §3, §4

[8] = test system: MT-2 cells as well as PMBC lines ETH and IS; settings: ratio CC50/EC50
Protocol: as §1

CXCR4 [9] = target: T1, CXCR4; test: Inhibition of anti-CXCR4 mAb (12G5) binding, flow cytometry, PHA-activated PBMC; design: endogenous in cells
Protocol: as §2

Compound: gentamicin
- inhibition of Rev-RRE interaction (HIV Rev-RRE interaction): do not display any inhibition

Compound: Cl.N=C(N)NCCC[C@H](N)C(=O)O [Arginine HCl, reference compound]
- CE50 (TAR RNA): 1500 mM
- IC50 (Tat-TAR interaction [1]): 38000 µM
- IC50 (Tat-TAR interaction [2]): 4000 µM

Compound: SDF-1α
- EC50 (HIV-1 NL4-3 [3]): 0.04 µM
- EC50 ([4]; MTT assay, read-out: EC50 HIV-1 AMD 3100res): > 1 µM
- cross-resistance of NL4-3 AMD3100-resistant virus ([4]; relative to NL4-3): > 25 fold
- binding of HIV-1 to MT-4 cells (HIV-1 NL4-3 [5]): did not inhibit the binding
- IC50 (CXCR4 [6]): 0.013 µM

Compound: CO[C@@H]1O[C@H](CC(N)=O)C(O)[C@H](O)[C@@H]1O (stereo partly drawn) [compound 8, Methyl 6-deoxy-α-D-mannoheptopyranuronic acid amide]
- melting point: 177 °C

Compound: native Tat: HIV trans-activator of transcription protein
- Kd (Tat-TAR complex; comparison value, read-out: Kd of the native Tat-TAR complex): 0.006 to 0.012 µM

Compound: Hexa/penta-argininamido-neomycin B conjugate [NeoR]
- EC50 (HIV-1 IIIB): 3 to 4 µM
- inhibition of virus growth ([7]; MT-2 cells infected in presence of 20 μM R3G or 10 μM NeoR, then 3 days without AAC): 60%
- EC50 ([7]; average of two independent experiments in duplicates): 3 µM
- EC50 (HIV-1 2D): 4 µM
- antiviral effect in the presence of AZT (HIV-1 2D): additive
- TI50 [8]: 60-85
- affinity for CXCR4 (CXCR4 [6]; inhibition of 12G5 binding to SUP-T1 cells or PMBC): high affinity
- binding of 12G5 mAb to PHA-activated PBMC (CXCR4 [9]; 5 μM): suppressed significantly more than in the presence of 5 μM R3G; also recorded: suppressed
- IC50 (CXCR4 [9]; read-out: IC50-12G5 PMBC): 2.4 µM

Compound: NC[C@@H]1O[C@H](O[C@H]2[C@@H](O)[C@H](O[C@@H]3[C@@H](O)[C@H](N)C[C@H](N)[C@H]3O[C@H]3O[C@H](CN)[C@@H](O)[C@H](O)[C@H]3N)O[C@@H]2CO)[C@H](N)[C@@H](O)[C@@H]1O [Neomycin B, reference compound]
- concentration range of inhibitory effect on Tat binding to TAR (Tat-TAR complex; in vitro): 1 to 100 µM
